Assay results as given in patent EP4810509A1, “INSECT NEUROPEPTIDES 7” (Solasta Bio Limited, priority 2022, dated 2024).

Columns and labels:
Format in all cases: in vivo
Aphis gossypii = test: Field trials, naturally infested plants (AgriScience, cotton and melon); settings: unformulated, acting comparably to commercial insecticides (Figures 11, 12)
Experimental: (§1) A) and 16 days after second application (App.
(§2) Field trials for peptide SB-P-66, unformulated, against various insects were conducted by third-party organisations PGRO and AgriScience.

Myzus persicae = test: Field trials; settings: unformulated; acting comparably to commercial insecticides
Experimental: as §2

Bumblebee = test: Bee oral toxicity test (adapted from OECD Test No. 247: Bumblebee, Acute Oral Toxicity Test); settings: % survival after 96 hours of application, compared with sucrose or vehicle and with Imidacloprid (Figure 9)
Experimental: Bee oral testing protocol was carried out adapted from OECD Test No. 247: Bumblebee, Acute Oral Toxicity Test. The toxicity of SB-P-66 was compared with a negative control of sucrose or vehicle, and with a current commercial insecticide Imidacloprid.

Myzus persicae aphids = test: Leaf dip assay (based on IRAC susceptibility test method 019), mortality assessment; settings: unformulated, mortality assessed at 72, 96 and 120 hours, compared to negative control vehicle and Spirotetramat (Figures 6-8)
Experimental: The assay was carried out based on IRAC susceptibility test method 019 (https://irac-online.org/methods/aphids-adultnymphs/).
Fill a small 4 cm wide 3 cm high dish with a 1% agar treatment solution of the active chemical or control (ensuring 1 cm gap between the agar and the lid) and leave to set. Dip a 2.5 cm leaf disc into 3 ml of treatment solution allowing the treatment to coat the leaf. Leave the disc to dry for 1 hour and place onto the set agar. Place insects (Myzus persicae aphids) onto each of the leaf discs. Each unit is sealed with a close-fitting, ventilated lid. Place the agar dishes in a small plastic tray lined with moist tissue paper and ensure the water trays in the bottom of the incubator are filled with clean water and place within the incubator. An assessment of mortality is made at 72, 96 and 120 hours. Leaf dip assays were performed with SB-P-66, and compared to a negative control vehicle and a current commercial insecticide Spirotetramat. The activity of SB-P-66 is shown in Figures 6 and 7; SB-P-66 has good activity whilst being eco-friendly and targeted to specific pests unlike broad spectrum chemical insecticides such as Spirotetramat.

Aphis fabae = test: Field trials, naturally infested plants (PGRO, vining peas); settings: unformulated, acting comparably to commercial insecticides (Figures 10, 13)
Experimental: as §1, §2

[1] = system: Amrasca biguttula (leaf hopper); test: Field trials, naturally infested plants; settings: unformulated; over time; acting comparably to commercial insecticides (Figure 14)
Experimental: as §1, §2

Substance: H-PAFSSWG-NH2 [SB-P-66, [Hy]-PAFSSWG-[NH2]]
- efficacy in field trials against Aphis gossypii (Aphis gossypii): good efficacy
- efficacy in field trials against Myzus persicae (Myzus persicae): good efficacy
- bee oral toxicity (% survival) (Bumblebee): far lower toxicity
- activity against Myzus persicae (mortality) (Myzus persicae aphids): good activity
- efficacy in field trials against Aphis fabae (Aphis fabae): good efficacy
- efficacy in field trials against Amrasca biguttula [1]: good efficacy
